Experimental data: ChEMBL document CHEMBL4507291 (2021)

What was measured:
[1] = biological target: Endothelin receptor type B (Homo sapiens) (UniProt P24530); settings: Compound concentration 10.0 uM
Rattus norvegicus = species: Rattus norvegicus; experiment: GABAA, Ro-15-1788, Hippocampus Eurofins-Panlabs radioligand binding assay; parameters: ligand concentration 1 nM; settings: Compound concentration 10.0 uM
[2] = test system: T1, Receptor-type tyrosine-protein kinase FLT3 (Homo sapiens), P36888 [D835Y]; experiment: FLT3 D835Y Kinase screen; settings: Compound concentration 1.0 uM
T1 sequence (whole entry): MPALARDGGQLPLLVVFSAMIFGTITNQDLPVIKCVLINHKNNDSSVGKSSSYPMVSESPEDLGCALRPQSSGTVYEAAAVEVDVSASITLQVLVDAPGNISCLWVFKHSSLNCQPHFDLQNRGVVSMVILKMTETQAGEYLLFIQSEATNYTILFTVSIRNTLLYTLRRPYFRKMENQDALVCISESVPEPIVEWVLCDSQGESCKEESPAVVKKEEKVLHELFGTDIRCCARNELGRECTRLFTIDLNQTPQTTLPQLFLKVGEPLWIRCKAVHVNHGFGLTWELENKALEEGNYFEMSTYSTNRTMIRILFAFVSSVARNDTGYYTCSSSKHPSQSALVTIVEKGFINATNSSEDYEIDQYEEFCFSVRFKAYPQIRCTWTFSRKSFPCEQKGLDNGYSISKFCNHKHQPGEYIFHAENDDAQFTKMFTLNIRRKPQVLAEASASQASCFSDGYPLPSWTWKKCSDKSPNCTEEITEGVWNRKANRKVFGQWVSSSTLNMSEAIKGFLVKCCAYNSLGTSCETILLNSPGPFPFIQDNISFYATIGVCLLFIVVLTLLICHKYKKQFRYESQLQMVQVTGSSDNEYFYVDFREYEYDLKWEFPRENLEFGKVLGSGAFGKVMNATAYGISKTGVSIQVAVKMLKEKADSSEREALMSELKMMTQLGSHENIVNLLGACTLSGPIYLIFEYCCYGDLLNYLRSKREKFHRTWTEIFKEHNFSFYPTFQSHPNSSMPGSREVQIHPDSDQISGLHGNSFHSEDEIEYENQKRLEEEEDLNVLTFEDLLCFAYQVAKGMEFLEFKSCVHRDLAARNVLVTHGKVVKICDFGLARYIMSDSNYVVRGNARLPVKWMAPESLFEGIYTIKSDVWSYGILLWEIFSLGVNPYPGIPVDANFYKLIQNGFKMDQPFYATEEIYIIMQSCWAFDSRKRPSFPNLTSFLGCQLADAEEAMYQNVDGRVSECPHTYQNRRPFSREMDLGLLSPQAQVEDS

[3] = biological target: Melanocortin receptor 3 (Homo sapiens) (UniProt P41968); experiment: Inhibition of Melanocortin MC3 at 10 µM in the Eurofins-Panlabs radioligand binding assay (Eurofins_assay_251300); parameters: ligand concentration 0.035 nM; settings: Compound concentration 10.0 uM
[4] = biological target: T2, Aurora kinase C (Homo sapiens) (UniProt Q9UQB9); experiment: AURKC (Aurora C) Kinase screen; settings: Compound concentration 1.0 uM
T2 sequence (whole entry): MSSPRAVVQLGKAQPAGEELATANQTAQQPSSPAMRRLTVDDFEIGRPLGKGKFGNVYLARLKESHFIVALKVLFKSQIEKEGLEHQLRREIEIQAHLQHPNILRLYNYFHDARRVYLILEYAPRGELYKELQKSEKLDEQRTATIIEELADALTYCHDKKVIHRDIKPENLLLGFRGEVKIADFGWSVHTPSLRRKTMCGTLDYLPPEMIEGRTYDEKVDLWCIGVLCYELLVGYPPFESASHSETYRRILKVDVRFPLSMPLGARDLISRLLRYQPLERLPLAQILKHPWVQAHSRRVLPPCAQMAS

[5] = biological target: Mu-type opioid receptor (Homo sapiens) (UniProt P35372); settings: Compound concentration 10.0 uM
[6] = biological target: Adenosine receptor A2a (Homo sapiens) (UniProt P29274); settings: Compound concentration 10.0 uM
[7] = biological target: Cholecystokinin receptor type A (Homo sapiens) (UniProt P32238); experiment: Inhibition of Cholecystokinin CCK1 (CCKA) at 10 µM in the Eurofins-Panlabs radioligand binding assay (Eurofins_assay_218020); settings: Compound concentration 10.0 uM
[8] = biological target: MAP kinase-interacting serine/threonine-protein kinase 1 (Homo sapiens) (UniProt Q9BUB5); experiment: MKNK1 (MNK1) Kinase screen; settings: Compound concentration 1.0 uM
[9] = biological target: T3, Serine/threonine-protein kinase Nek1 (Homo sapiens) (UniProt Q96PY6); experiment: NEK1 Kinase screen; settings: Compound concentration 1.0 uM
T3 sequence (whole entry): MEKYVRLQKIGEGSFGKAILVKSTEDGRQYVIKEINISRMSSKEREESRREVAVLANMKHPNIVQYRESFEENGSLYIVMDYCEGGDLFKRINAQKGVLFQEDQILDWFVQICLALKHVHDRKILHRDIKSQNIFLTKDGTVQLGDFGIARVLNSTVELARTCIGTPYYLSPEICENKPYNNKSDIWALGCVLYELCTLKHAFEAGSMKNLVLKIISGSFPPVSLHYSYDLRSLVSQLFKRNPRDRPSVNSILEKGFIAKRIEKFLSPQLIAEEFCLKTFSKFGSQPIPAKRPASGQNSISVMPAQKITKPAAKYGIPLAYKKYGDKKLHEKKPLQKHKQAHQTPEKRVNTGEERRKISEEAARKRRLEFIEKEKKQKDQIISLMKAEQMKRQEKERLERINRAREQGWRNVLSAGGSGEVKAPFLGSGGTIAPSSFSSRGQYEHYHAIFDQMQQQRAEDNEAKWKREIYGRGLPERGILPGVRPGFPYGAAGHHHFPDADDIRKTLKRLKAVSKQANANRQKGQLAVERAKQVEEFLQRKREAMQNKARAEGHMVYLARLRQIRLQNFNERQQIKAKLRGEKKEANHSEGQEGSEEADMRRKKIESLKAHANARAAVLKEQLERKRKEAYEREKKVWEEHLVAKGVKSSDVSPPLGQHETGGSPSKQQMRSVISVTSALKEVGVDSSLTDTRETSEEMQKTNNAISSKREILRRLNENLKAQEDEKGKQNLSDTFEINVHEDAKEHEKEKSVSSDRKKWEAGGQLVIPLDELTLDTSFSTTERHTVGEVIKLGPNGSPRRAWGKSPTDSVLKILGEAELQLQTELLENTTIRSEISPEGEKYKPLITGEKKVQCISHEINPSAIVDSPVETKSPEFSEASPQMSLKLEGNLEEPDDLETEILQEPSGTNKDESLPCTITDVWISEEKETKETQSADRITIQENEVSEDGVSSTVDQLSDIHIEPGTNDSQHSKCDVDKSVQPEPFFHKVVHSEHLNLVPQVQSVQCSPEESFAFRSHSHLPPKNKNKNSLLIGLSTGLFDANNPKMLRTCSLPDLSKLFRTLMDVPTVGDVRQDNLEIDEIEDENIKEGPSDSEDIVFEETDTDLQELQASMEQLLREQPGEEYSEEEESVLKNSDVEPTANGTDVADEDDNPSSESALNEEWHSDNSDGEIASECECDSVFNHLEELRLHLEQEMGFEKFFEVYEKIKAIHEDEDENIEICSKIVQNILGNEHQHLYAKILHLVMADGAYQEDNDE

[10] = biological target: Homeodomain-interacting protein kinase 2 (Homo sapiens) (UniProt Q9H2X6); experiment: HIPK2 Kinase screen; settings: Compound concentration 1.0 uM

Measured: inhibition

Chain of MAP kinase-interacting serine/threonine-protein kinase 1 (Homo sapiens) (Q9BUB5 whole entry, looked up): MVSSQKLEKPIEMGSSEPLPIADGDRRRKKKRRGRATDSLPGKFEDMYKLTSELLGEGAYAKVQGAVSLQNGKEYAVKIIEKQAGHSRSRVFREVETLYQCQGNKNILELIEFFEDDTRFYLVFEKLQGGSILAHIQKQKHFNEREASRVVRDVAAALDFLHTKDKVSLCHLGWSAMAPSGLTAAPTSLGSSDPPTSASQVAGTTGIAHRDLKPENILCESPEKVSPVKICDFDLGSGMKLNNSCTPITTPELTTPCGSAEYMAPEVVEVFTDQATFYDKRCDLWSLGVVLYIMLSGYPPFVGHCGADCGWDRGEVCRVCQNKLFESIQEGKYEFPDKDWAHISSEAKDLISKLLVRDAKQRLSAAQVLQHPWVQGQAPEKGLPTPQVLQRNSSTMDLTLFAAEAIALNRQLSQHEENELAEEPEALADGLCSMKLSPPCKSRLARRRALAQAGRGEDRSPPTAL
Chain of Endothelin receptor type B (Homo sapiens) (P24530 whole entry): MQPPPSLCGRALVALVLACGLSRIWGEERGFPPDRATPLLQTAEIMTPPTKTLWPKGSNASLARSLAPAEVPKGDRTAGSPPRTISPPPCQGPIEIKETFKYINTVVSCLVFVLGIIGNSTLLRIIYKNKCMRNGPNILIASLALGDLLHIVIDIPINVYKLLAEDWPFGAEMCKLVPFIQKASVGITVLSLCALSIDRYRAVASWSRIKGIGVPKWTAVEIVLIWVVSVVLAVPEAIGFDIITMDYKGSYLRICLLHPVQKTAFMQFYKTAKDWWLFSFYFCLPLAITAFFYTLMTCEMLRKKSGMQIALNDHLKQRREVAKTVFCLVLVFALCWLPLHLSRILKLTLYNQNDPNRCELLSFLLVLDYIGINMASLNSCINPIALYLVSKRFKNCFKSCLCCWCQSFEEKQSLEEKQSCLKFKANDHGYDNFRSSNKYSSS
Chain of Adenosine receptor A2a (Homo sapiens) (P29274 whole entry): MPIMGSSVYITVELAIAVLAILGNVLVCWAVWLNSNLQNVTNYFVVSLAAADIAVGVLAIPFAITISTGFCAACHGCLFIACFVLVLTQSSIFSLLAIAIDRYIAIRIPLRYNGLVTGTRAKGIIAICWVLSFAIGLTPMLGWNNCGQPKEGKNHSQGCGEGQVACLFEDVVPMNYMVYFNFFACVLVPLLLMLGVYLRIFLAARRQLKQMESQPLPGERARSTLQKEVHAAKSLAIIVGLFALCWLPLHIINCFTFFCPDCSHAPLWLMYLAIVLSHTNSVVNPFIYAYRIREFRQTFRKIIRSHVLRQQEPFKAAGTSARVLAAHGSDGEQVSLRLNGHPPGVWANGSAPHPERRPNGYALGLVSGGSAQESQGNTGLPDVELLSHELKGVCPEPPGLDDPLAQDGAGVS
Chain of Mu-type opioid receptor (Homo sapiens) (P35372 whole entry): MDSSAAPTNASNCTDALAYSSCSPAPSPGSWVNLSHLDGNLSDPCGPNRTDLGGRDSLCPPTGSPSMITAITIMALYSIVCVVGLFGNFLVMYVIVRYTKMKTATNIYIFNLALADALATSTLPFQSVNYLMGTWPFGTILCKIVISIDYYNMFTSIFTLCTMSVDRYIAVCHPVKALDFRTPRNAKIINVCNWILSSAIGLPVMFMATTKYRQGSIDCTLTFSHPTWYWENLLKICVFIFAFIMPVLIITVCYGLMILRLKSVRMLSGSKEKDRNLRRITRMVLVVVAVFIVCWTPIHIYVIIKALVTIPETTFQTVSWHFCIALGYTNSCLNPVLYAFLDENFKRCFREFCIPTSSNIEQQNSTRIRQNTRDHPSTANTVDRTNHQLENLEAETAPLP
Chain of Melanocortin receptor 3 (Homo sapiens) (P41968 whole entry): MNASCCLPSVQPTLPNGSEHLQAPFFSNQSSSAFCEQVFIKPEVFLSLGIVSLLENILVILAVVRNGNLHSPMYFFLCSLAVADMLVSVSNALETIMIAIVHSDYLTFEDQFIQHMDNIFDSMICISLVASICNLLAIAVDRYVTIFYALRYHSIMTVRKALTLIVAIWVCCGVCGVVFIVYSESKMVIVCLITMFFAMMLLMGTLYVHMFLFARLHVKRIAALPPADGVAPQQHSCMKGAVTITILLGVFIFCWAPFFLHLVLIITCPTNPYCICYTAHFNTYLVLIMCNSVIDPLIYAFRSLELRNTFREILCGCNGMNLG
Chain of Homeodomain-interacting protein kinase 2 (Homo sapiens) (Q9H2X6 whole entry, looked up): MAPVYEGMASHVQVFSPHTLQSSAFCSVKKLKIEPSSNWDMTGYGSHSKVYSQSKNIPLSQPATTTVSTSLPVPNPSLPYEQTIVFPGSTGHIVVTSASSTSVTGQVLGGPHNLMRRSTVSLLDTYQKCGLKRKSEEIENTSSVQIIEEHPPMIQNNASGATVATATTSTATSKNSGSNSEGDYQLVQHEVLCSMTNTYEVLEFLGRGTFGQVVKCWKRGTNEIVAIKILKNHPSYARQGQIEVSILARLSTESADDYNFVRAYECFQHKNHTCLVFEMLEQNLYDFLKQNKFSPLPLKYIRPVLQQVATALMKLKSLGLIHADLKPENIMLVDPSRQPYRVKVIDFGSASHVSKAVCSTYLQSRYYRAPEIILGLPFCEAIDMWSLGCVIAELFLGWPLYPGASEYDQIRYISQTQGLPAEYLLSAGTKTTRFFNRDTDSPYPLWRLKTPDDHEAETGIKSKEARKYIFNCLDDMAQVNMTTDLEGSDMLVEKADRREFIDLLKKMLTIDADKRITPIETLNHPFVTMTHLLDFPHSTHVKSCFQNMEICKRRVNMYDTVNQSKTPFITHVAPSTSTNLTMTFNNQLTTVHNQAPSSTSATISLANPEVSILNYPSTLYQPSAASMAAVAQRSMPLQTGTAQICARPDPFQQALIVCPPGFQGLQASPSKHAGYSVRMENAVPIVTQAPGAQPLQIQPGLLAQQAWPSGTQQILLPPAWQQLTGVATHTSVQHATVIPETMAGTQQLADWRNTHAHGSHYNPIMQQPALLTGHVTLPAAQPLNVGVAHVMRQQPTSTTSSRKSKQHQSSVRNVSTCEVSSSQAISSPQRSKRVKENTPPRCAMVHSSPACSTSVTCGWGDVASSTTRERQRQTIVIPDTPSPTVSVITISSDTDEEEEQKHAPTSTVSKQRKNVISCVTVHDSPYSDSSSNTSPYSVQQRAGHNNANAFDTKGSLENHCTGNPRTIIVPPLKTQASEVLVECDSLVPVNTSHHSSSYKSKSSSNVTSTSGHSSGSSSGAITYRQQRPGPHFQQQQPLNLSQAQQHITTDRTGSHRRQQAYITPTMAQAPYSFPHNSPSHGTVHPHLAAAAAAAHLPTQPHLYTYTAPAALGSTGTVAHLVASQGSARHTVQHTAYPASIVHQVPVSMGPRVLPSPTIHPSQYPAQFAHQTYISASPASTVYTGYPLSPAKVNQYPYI
Chain of Cholecystokinin receptor type A (Homo sapiens) (P32238 whole entry): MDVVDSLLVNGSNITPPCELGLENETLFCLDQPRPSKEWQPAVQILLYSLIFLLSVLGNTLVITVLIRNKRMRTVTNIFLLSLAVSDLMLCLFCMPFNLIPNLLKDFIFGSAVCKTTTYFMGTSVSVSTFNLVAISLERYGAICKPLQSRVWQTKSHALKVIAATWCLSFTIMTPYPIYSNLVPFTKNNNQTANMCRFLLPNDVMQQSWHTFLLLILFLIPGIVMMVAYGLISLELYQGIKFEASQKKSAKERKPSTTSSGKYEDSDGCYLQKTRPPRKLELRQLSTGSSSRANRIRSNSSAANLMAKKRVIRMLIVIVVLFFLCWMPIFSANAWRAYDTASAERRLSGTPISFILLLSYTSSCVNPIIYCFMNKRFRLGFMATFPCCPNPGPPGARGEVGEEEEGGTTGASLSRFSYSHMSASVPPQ

C[C@@H]1CN(c2cc(-c3n[nH]c4ccc(OC5(C)CC5)cc34)ncn2)C[C@H](C)O1 [MLi-2]
inactive: [1] -1% | Rattus norvegicus 1% | [2] 9.6% | [3] -2% | [4] 1.85% | [5] 17% | [6] 1% | [7] -4% | [8] -3.19% | [9] 3.48% | [10] 5.33%
